Test results as given in patent publication US9586994B2, “CD44V6-derived peptides for treating breast cancer” (KARLSRUHER INSTITUT FÜR TECHNOLOGIE, priority 2012, dated 2017).
No end group written: not given here. MeO‑PEG‑COOH = methoxy-PEG carboxylic acid, 750 or 2000 Da

Experiments:
HT29 colon cancer cells = experiment: Scatter assay, HGF-induced HT29 colon cancer cells; type: cell-based, human; details: HGF 10 ng/ml, pre-incubated with peptide
Experimental: A scatter assay was performed additionally. HT29 colon cancer cells were grown in medium containing 10% FCS. One day after seeding, the cells were starved. On the third day, the cells were induced with HGF (10 ng/ml) and pre-incubated with either no peptide, ctrl-peptides (SEQ ID NO: 15), non-pegylated v6-peptides (SEQ ID NO: 11) or the pegylated peptides, namely PEG-rat control peptide and PEG-rat CD44v6 peptide.

L3.6pl cells [1] = experiment: Human orthotopic pancreatic cancer model, L3.6pl cells in nude mice, treatment from day 7; type: in vivo, mouse; details: L3.6pl orthotopic model; 5mer instead of 14mer
Experimental: In the case of the human orthotopic model, L3.6pl pancreatic carcinoma cells (passage 24-26) were suspended in Hank's balanced salt solution (Invitrogen, Karlsruhe, Germany) after trypsinization. The cells were injected orthotopically in the pancreas of male nude mice as described (Bruns C J et al. (1999) Neoplasia 1(1):50-62). Two groups of 15 mice each were injected i.p. 7 days later with either the human v6 peptide respectively rat control peptide (20 μg). For all experiments described and depicted herein either the rat 14mer control peptide or the human 14mer peptide were used. All experiments were then repeated with the rat 5mer control peptide or the human 5mer peptide (N-R-W-H-E, SEQ ID NO: 2). […] The injection was repeated three times per week for 21 days. Two days after the last treatment the animals were killed.
7 μm thick paraffin sections were deparaffinized and rehydrated. For P-Met staining antigen unmasking was achieved by boiling the slides in 1 mM EDTA pH 8.0 followed by incubation for 15 minutes at a sub-boiling temperature, for CD31 staining the sections were treated with Proteinase K (8 μg/ml) for […] at 37° C. For immunofluorescence staining of P-Met, unspecific binding was blocked with 5% goat serum (DAKO, Glostrup, Denmark) (diluted in 1×PBS/0.3% Triton X-100) for 60 minutes. In the case of immunohistochemistry, endogenous peroxidases were at first blocked with 3% H2O2 in PBS followed by incubation with biotin blocking system (Dako, Glostrup, Denmark) and then unspecific binding was inhibited by incubation with 5% FCS in PBS was used for blocking. The sections were incubated with the P-Met antibody (D26, dilution 1:50 in 1×PBS/1% BSA/0.3% Triton X-100), Met antibody (C-28, dilution 1:50), GFP antibody (sc-101525, dilution 1:50) or CD31 antibody (5 μg/ml) over night or VFF18 (5 μg/ml) o/n at 4° C. After washing in PBS the sections were incubated with Alexa Fluor R 546 goat anti-rabbit (in case of immunofluorescence P-Met and Met staining, dilution 1:500) or a biotinylated secondary antibody (for immunohistochemical stainings rabbit anti-rat antibody for VFF18 and CD31, goat anti-rabbit for P-Met, cleaved Caspase-3 and cleaved Caspase-8 and rabbit anti-mouse for GFP, dilution 1:500) for 45 minutes. For DAB staining the sections were treated with a streptavidin-peroxidase conjugate (Dako, Glostrup, Denmark) and developed with DAB (3,3′-diaminobenzidine) substrate system (3,3′-diaminobenzidine; Biozol, Eching, Germany) For immunofluorescence DAPI was used for nuclear staining.
To test the effect of the peptide on tumor growth and metastasis formation the L3.6pl cells were orthotopically injected into the pancreas of immunosuppressed mice (NCI-nu). […] The primary tumor expresses a high amount of CD44v6 (FIG. 19B). […] Indeed, human HGF in a concentration of 3375 pg/ml was detected in the supernatant (see Material and Methods) after 5 days of culture (data not shown).

CD44v6 [2] = experiment: HGF-induced activation of Met and ERK in L3.6pl cells (Western blot); type: cell-based, human
Experimental: (§1) Serum-starved cells (24 hours) were induced with the growth factor HGF (10 ng/mL) at 37° C. for 5 minutes. Where indicated, the cells were treated with peptides (100 ng/ml) prior to induction at 37° C. for 10 minutes (100 ng/mL CD44v6 peptide or control peptide). Following the induction with HGF, cells were washed with ice-cold phosphate-buffered saline (PBS). To detect activated Met and ERK, cells were lysed in sodium dodecyl sulfate (SDS)—sample buffer containing 100 mM dithiothreitol (DTT), boiled and subjected to western blot analysis using antibodies against phospho-Met and ERK. The loading controls were performed on the same blot after stripping (62.5 mM Tris, pH 6.8, 2% SDS, 0.8% DTT) by probing with the Met respectively Erk antibody. Blots were stained using the enhanced chemiluminescence system (Thermo Fisher Scientific, Schwerte, Germany). Bands in western blot analysis were quantified with the program Image J (National Institutes of Health).
To expand the studies to human pancreatic tumors, the highly metastatic human pancreatic carcinoma cells L3.6pl (Bruns, et al. Neoplasia (1999), 1(1):50-62) were investigated. These cells originate from the […] cells that have been passaged several times in the liver and the pancreas, a step that rendered them more and more metastatic. It was confirmed that Met is dependent on CD44v6 for its activation and signaling in these cells (FIG. 19A). The L3.6pl cells were treated with HGF in the presence or absence of a human v6 peptide of SEQ ID NO: 2 or SEQ ID NO:6 and Met activation and downstream signaling to ERK was measured. Phosphorylation of both Met and ERK was inhibited by the human v6 peptide. Treatment with a corresponding rat v6 peptide (ctrl peptide, SEQ ID NO: 10 or 11) had no influence on receptor activation and signal transduction (FIG. 19A).
The contribution of CD44v6 to Met signaling in the human epithelial pancreatic cancer cells L3.6pl (derived from Colo 357), the cervix carcinoma cells HeLa and the colon cancer cells HT29 were analysed using the CD44v6 peptide (v6 14mer; v6 5mer tested as well, data not shown).

BSp73ASs6 cells [3] = experiment: Rat syngeneic model, subcutaneous BSp73ASs6 tumors, treatment from one week (metastasis formation); type: in vivo; details: rats, s.c. BSp73ASs6
Experimental: In the case of the rat syngeneic model, 1×10^6 pancreatic cells (BSp73AS and its transfectants) were subcutaneously injected into the right posterior flank of the animals. Tumors developed for four weeks. During this time period animals injected with BSp73ASs6 cells expressing Met-shRNA or control-shRNA received doxycycline in the drinking water. At the end of the experiment, primary tumors were isolated. Lungs and axillary lymph nodes were analyzed. The tissues were incubated for 24 h in a zinc-fixative (0.5 g calcium acetate, 5.0 g zinc acetate, 5.0 g zinc chloride, in 1 L 0.1 M Tris pH 7.4) and embedded in paraffin for further analysis. In case of peptide or antibody treatment tumors developed for one week before the first treatment. Where indicated, animals received 200 μg of peptide or antibody per injection three times per week for four weeks. Tumor growth was monitored weekly using a caliper Animals were killed at day 28 or 30 after start of the treatment.
For histomorphological analysis paraffin-embedded sections of lungs were stained with hematoxylin and eosin and periodic acid-Schiff (H&E or PAS). Serial sections of the whole tissue blocks were examined by analyzing slices every 20 μm; in each slice, the presence and the extension of the metastatic deposit was assessed, according to the procedure routinely used by pathologists to evaluate the presence of micrometastases.
Rat peptides had the sequences KEKWFENEWQGKNP (SEQ ID NO: 10) and NEWQG (SEQ ID NO: 11). BSp73ASs6 cells were subcutaneously injected into syngeneic rats and rat CD44v6 peptides of SEQ ID NO: 10 or SEQ ID NO: 11 (or mouse control peptides) or the CD44v6 antibody (or IgGs as a control) were injected intra-tumoral or intravenously three times a week. […] This is compatible with the fact that also BSp73AS cells or BSp73ASv1-10Δv6 cells can induce the formation of primary tumors similarly to the v6 transfectants.

CD44v6 [4] = experiment: Activation assay with pegylated peptides: HGF-induced Met and ERK activation in BSp73ASs6 cells; type: cell-based, rat
Experimental: The PEG-control peptide and PEG-rat CD44v6 peptide were compared for their ability to block HGF induced activation of the receptor tyrosine kinase Met and ERK.
Rat pancreatic cancer cells BSp73ASs6 (also designated Ass6) were incubated for 10 min at 37° C. with either ctrl-peptides (SEQ ID NO: 15), non-pegylated v6-peptides (SEQ ID NO: 11) and increasing concentrations of the pegylated peptides, namely PEG-rat control peptide and PEG-rat CD44v6 peptide, before induction with HGF (10 ng/ml; 5 min at 37° C.).
Activation of ERK and Met was determined by standard SDS and Western Blotting techniques using a phospho-Met and phospho-Erk specific antibody (phospho-Met clone D16 cell signaling, phospho-Erk p42/44 cell signaling)

BSp73ASs6 cells [5] = experiment: Staining of fixed BSp73ASs6 cells with DY681-labeled peptides (confocal microscopy); type: binding, rat; details: 1 hour with DY681-labeled peptide
Experimental: (§2) ASs6 or L3.6pl cells were seeded at 5,000 cells/well of a Lab-TekR Chamber Slide™ (Nunc, Napierville, Ill., USA). On the following day the cells were washed with cold PBS and fixed with 4% Formalin for 30 min at RT. Unspecific binding was blocked with 1% BSA in PBS for 1 hour at RT. The cells were incubated for 1 hour with the DY681-labeled peptides. After three washing steps with PBS the cover slips were mounted with Fluorescence Mounting Medium (Dako, Glostrup, Denmark) and the immunofluorescence was measured by a laser scanning confocal microscope Leica TCS2 SP2 (Exton, Pa., USA) and processed using Leica confocal software. A 20× objective was used for imaging.

BSp73ASs6 tumors = details: rat
Excerpt: To avoid autofluorescence of fur, rats were shaved around the tumor prior to imaging. Subsequently, animals were anesthetized using 2% isoflurane and gently fixed on the devices' heated plate for the entire time of data acquisition. To reduce fluorescence background, rats were fed with chlorophyll-reduced food (Provimi Kliba AG, Kaiseraugst, Switzerland) for one week prior NIRF imaging. All in vivo analyses were preceded by native scans of animals without any injection of the fluorescent probe. For in vivo analysis, rats were injected with 200 μg DY681-labeled rat v6 11 mer peptide or the human v6 11 mer peptide via the tail vein. Controls were injected with the equal amount of DY681-labeled mouse v6 11mer peptide. […] All peptides were labeled with the fluorescent dye DY681. Data were acquired at the indicated time after injection of the peptides. […]
DY681 fluorescence was measured using excitation at 670 nm in combination with a 700 nm long-pass emission filter. […] Data sets were analyzed with OptiView (ART).
For in vivo experiments, BSp73ASs6 cells were injected subcutaneously into syngeneic rats. […] The accumulation of the fluorescence was measured in the tumor region by Optix MX2 at the indicated time points. […] Then, in vivo binding kinetics of the Dy681-labeled v6 peptides to the subcutaneous tumors were determined. […]

CD44v6 [6] = experiment: HGF-induced Met/Erk activation in BSp73ASs6 cells with DY681-labeled peptides; type: cell-based, rat; details: FIG. 18A right side, activation of Erk determined
Experimental: as §1
In order to test the specificity of the binding of CD44v6 peptides to the tumor site and to the metastases and to estimate the binding kinetics in vivo, near infrared fluorescence (NIRF) imaging with the Optix MX2 was. For this purpose two CD44v6 peptides were labeled with the fluorophore DY681: a rat specific one, rv6 pep Dy681 and a mouse specific one, mv6 pep Dy681, as a control.

L3.6pl cells [7] = experiment: Staining of fixed L3.6pl cells with DY681-labeled peptides (confocal microscopy); type: binding, human; details: DY681-labeled peptide
Experimental: as §2

L3.6pl tumors = experiment: In vivo and ex vivo imaging (Pearl Imager) of mice with L3.6pl tumors; design: species or system mouse; details: 24 h after injection
Experimental: In vivo imaging of the mice with the L3.6pl tumors was performed using the Pearl™ Imager (LI-COR Biosciences, Bad Homburg, Germany) The system uses two lasers (685 and 785 nm) for excitation and a charge-coupled device detector for signal detection. The laser excitation enables a deep tissue penetration. With the near-infrared detection a high sensitivity due to the reduced tissue auto-fluorescence is achieved. In order to standardize the images we made use of the Pearl Cam Software. The animals were fed with chlorophyll-reduced food to reduce the fluorescence background one week before imaging (Regime 210, safe-diets, Augy, France). Prior to imaging the mice were anesthetized with 2.0% isoflurane. Animals were placed on the heated plate of the imager and continuous delivery of isoflurane was achieved through a nose cone in the imaging drawer. Images were captured at white light, 700 and 800 nm Animals were imaged prior to i.v. peptide injection and 24 h after injection with either DY681-labeled human v6 peptide or DY681-labeled rat v6 peptide as control Immediately after each imaging session animals were killed, tumor, liver and spleen isolated and scanned ex vivo at white light, 700 and 800 nm.
Then, the specificity of binding of the human CD44v6 peptide to the tumor in vivo was examined using the small animal imaging system Pearl Impulse. […]

[8] = peptide before induction with 10 ng/ml HGF
[9] = peptide 10 min 37° C., HGF 10 ng/ml 5 min

Substance: NEWQG [SEQ ID NO: 11, rat CD44v6 5mer peptide]
- Dissociation and migration of cells away from cell cluster (scatter) (HT29 colon cancer cells): lead to dissociation and migration of cells away from these cell cluster
- Outcome of all experiments repeated with 5mer peptides, compared with 14mer (L3.6pl cells [1]): same results as for the 14mer peptides
- HGF-induced phosphorylation/activation of ERK (CD44v6 [2]; [8]): no influence
- HGF-induced phosphorylation/activation of Met (CD44v6 [2]; [8]): no influence
- Metastasis (axillary lymph nodes and lungs) (BSp73ASs6 cells [3]; 200 μg per injection i.t. or i.v., three times a week, four weeks, start after one week): completely inhibited metastasis
- Metastasis and micro-metastasis in lung sections (PAS and H&E histology) (BSp73ASs6 cells [3]; 200 μg three times a week): no metastasis nor micro-metastasis could be detected
- Outgrowth of primary tumors (BSp73ASs6 cells [3]; treatment for 28 days): not influenced

Substance: PEG-NEWQG ({MeO‑PEG‑COOH}-NEWQG; also: PEG 750 or 2000 Da) [PEG-rat CD44v6 peptide, rat 5mer NEWQG coupled to MeO-PEG-COOH (750 Da and 2000 Da)]
- Dissociation and migration of cells away from cell cluster (scatter) (HT29 colon cancer cells): lead to dissociation and migration of cells away from these cell cluster
- Efficiency of inhibition of ERK, pegylated vs. non-pegylated peptides (CD44v6 [4]; HGF 10 ng/ml): even more efficient
- HGF dependent activation of ERK (CD44v6 [4]; [9]): efficient in inhibiting
- HGF dependent activation of Met (CD44v6 [4]; [9]): efficient in inhibiting

Substance: WFENEWQGKNP (also: DY681 fluorescent dye label) [rv6 pep Dy681, rat 11mer labeled with the fluorescent dye DY681]
- Binding to BSp73ASs6 cells in tissue culture (BSp73ASs6 cells [5]): bound to BSp73ASs6 cells
- Ex vivo fluorescence in excised tumors and lungs (BSp73ASs6 tumors): Fluorescence intensities could only be detected in tumors and in specific areas of the lungs
- Met activation (HGF-induced) with DY681-labeled peptides (CD44v6 [6]): inhibited Met activation
- Binding to L3.6pl cells in cell culture (L3.6pl cells [7]): not

Substance: WFGNRWHEGYR (also: DY681 fluorescent dye label) [labeled human v6 peptide, human 11mer labeled with the fluorescent dye DY681]
- Ex vivo fluorescence of isolated organs (tumor, liver, spleen) (L3.6pl tumors; mice with L3.6pl tumors): binding not only to primary tumors but also to areas of the liver
- Accumulation of fluorescence in the tumor in vivo (L3.6pl tumors; mice with orthotopic L3.6pl tumors, 20 μg i.v.): accumulated specifically in the tumor
- Binding to L3.6pl cells in cell culture (L3.6pl cells [7]): bound to these cells in cell culture
- Met activation (HGF-induced) with DY681-labeled peptides (CD44v6 [2]; FIG. 20A right side, activation of Erk determined): inhibited Met activation
